Consider eight compounds from paper PMC9706033 (Journal of Microbiology and Biotechnology, 2021).

Read-outs that look alike come from different tables or passages of the source. A value given as a limit tells only on which side of the number the result lay.

Series [1] is described as follows: Water solubility determination (UPLC of supernatant). The series is classed as physicochemical. The procedure: Each sample was centrifuged at 16,000 g for 30 min. Subsequently, the supernatant of each sample was filtered, and the concentration of the compound in the supernatant as a water-soluble component was estimated by UPLC analysis.
Series [2] relates to B16F10 melanoma cells. Description: Cellular melanin content in α-MSH-stimulated B16F10 melanoma cells. The series is classed as cell-based. The following applies: 72 h. The procedure:
Cellular melanin content was determined by the method of Park et al. with minor modifications. The cells (5 × 10^4 cells/well) were seeded into 6-well plates and cultured for 24 h. […] Then, the cells were washed with PBS and lysed with lysis buffer, and the supernatant was removed by centrifugation at 16,000 g for 15 min at 4°C. The protein concentration of the supernatant was determined by the Bradford method. The pellet was dissolved in 1 M NaOH and measured at 405 nm using a microplate reader.

The target of series [3] is T1, tyrosinase (Mus musculus, UniProt P11344).
T1 construct: endogenous in cells; host or cells: B16F10 melanoma cells, α-MSH-stimulated
T1 sequence (P11344 19-533): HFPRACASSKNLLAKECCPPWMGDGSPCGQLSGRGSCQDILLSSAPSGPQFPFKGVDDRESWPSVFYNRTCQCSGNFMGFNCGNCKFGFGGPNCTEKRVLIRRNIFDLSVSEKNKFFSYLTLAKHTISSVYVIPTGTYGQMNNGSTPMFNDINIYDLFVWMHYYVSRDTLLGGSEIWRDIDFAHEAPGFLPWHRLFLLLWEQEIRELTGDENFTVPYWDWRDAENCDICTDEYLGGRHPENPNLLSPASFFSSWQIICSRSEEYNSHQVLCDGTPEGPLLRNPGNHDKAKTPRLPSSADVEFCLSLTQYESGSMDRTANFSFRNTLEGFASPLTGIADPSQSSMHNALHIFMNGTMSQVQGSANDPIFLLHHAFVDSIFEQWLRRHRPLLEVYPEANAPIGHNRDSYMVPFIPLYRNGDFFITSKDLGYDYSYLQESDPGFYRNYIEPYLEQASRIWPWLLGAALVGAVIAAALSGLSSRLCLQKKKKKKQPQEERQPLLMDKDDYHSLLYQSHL
In words: Cellular tyrosinase activity in α-MSH-stimulated B16F10 melanoma cells. Conditions: 48 h; for inhibition at 300 µM: B16-F10. The series is classed as cell-based.

Series [4] is described as follows: DPPH free-radical scavenging assay. As for the experimental part: DPPH free-radical scavenging capability and ferric reducing antioxidant power (FRAP) assay results were evaluated as described previously by Moon et al.. Hydroxy radical-scavenging assay was measured as described by Su et al.. Vitamin C was used as a positive control. Each assay was measured from 1 min to 30 h. The DPPH radical-scavenging activity was calculated as follows: DPPH radical-scavenging activity (%) = (1-Asample/Ablank) × 100, where Asample is the absorbance in the presence of the sample, and Ablank is the absorbance of the blank. Hydroxy radical-scavenging activity was calculated in accordance with the following formula: Hydroxy radical scavenging activity (%) = (Asample-Acontrol)/(Ablank-Acontrol) × 100, where Asample is the absorbance in the presence of the sample, Acontrol is the absorbance of the blank with H2O2, and Ablank is the absorbance of the blank without H2O2.

The subject of series [5] is B16F10 cells. Description: Cellular uptake assay (UPLC of medium and cell lysates). The following applies: after 24 h incubation with B16F10 cells; resveratrol 20 μM, glucosides 100 μM. The series is classed as cell-based. The procedure:
The cellular uptake assay was conducted following the method described by Moon et al. with minor modification. The B16F10 cells (2 × 10^5 cells/well) were seeded into 6-well plates. […] After 24 h of incubation, the medium was removed, and the cells were washed with PBS and then scraped off. […] The lysate was centrifuged at 16,000 g for 10 min and filtered by a 0.2 μm syringe filter. The cell extracts were analyzed by UPLC.

Series [6] in a line: Hydroxyl radical scavenging assay.
The test system of series [7] is polyphenol oxidases. Conditions: cited from earlier work.
A short description of series [8]: Stability against oxidative degradation in buffer solutions and cell culture medium. The following applies: 37°C, up to 72 h, read-out: Half-life, t1/2 (converted). The series is classed as physicochemical.
Series [9] relates to B16F10 melanoma cells. The series is classed as cell-based. The following applies: mouse, 24 h. As for the experimental part: Cell culture and cell viability assay. B16F10 melanoma cells were maintained in DMEM supplemented with 10% FBS, 100 U/ml penicillin, and 100 μg/ml streptomycin. The cells were cultured at 37°C under 5% CO2 in a humidified culture chamber. Cell viability was determined by 3-(4,5-dimethythiazol-2-yl)-2,5-diphenyl tetrazolium bromide (MTT) assay. The cells (6 × 10^3 cells/well) were seeded into 96-well plates and cultured for 24 h. […] After 24 h, the cells were washed with PBS, MTT reagent (0.5 mg/ml) was added to each well, and the cells were incubated at 37°C for 1 h. The supernatant in each well was discarded for the treatment with DMSO, which was used to dissolve the formazan crystals formed from viable cells. After the DMSO treatment, the absorbance of each well was measured at 595 nm using a microplate reader (Epoch, Biotek, USA).

The conditions of series [10]: humans; cited from earlier work.
Details of series [11]: method as in PMID 9599270. Conditions: read-out: Antioxidant activity IC50; cited from earlier work.
For series [12], the system named is tyrosinase. More on the design: method as in PMID 7765966. Conditions: tyrosinase of B16 mouse melanoma; cited from earlier work.
[13] abbreviates: distilled water, sonicated 1 h at room temperature.
[14] abbreviates: 100 μM, α-MSH-stimulated B16F10.
Setting [15] is: Buffer pH 2.0 (hydrochloric acid).
Setting [16] is: DMEM cell culture medium without FBS, DMEM (without FBS).
Where [17] appears, read: phosphate-buffered saline, PBS (pH 7.4).
The mark [18] stands for this setting: simulated body fluid, SBF (pH 7.4).

Consider `OC[C@H]1O[C@H](Oc2ccc(C=Cc3cc(O)cc(O)c3)cc2)[C@H](O)[C@@H](O)[C@@H]1O` [R1, resveratrol-4′-O-α-glucoside], for which, in series [1] (setting [13]), the Water solubility is 0.515 mg/mL and the “Water solubility (molar)” value turned out to be 1319 µM.

On to `OC[C@H]1O[C@H](Oc2cc(O)cc(C=Cc3ccc(O)cc3)c2)[C@H](O)[C@@H](O)[C@@H]1O` [R2, resveratrol-3-O-α-glucoside], for which, in [1], the Water solubility worked out at 0.471 mg/mL and the “Water solubility (molar)” value stood at 1206 µM.

For orientation: inhibition means the percentage by which the read-out fell short of the control. High values mean a strong effect, low ones a weak effect. For `OC[C@H]1O[C@@H](Oc2ccc(O)cc2)[C@H](O)[C@@H](O)[C@@H]1O` [arbutin], the “Suppression of melanin synthesis” value is 51.2% in series [2] (100 μM) and 74.5% in series [2] (300 μM). Moreover, the “Suppression of tyrosinase activity” value in series [3] (setting [14]) was 15.8%. In [3] (α-MSH-stimulated B16F10), this compound displayed an inhibition at 300 µM of 25.6%.

What is called EC50 is the midpoint of the concentration-response curve. Read a high EC50 as weaker potency. One may read the solubility as how much of the substance goes into solution per volume. `Oc1ccc(/C=C/c2cc(O)cc(O)c2)cc1` [resveratrol, trans-3,5,4′-trihydroxystilbene]: the EC50 in series [4] (at 30 min) turned out to be 523 µM; in series [4] (at 5 h) it was 118 µM; in series [6] (at 30 min), 138 µM. For the same compound, the “Amount remaining in the extracellular medium” value in series [5] is on record as 59 % of the initial amount. Further, the “Half-life (t1/2) in the reaction of polyphenol oxidases compared with piceid” value in [7] was “three times shorter”. The half-life at 10 mM in series [8] (setting [15]) is > 72 h; in series [8] (Buffer pH 9.0 (Tris-HCl)) it was 1.5 h; in [8] (setting [16]), > 72 h; in series [8] (setting [17]), 28 h; in [8] (setting [18]), 44 h. In addition, the “Effect on growth of B16F10 cells” value in series [9] is listed as “inhibited the growth of B16F10 cells in a dose-dependent manner”. The Oral bioavailability entry in series [10] is “less than 1%”. For the same compound, the “Suppression of tyrosinase activity” value in series [3] (20 μM, compared with cells treated with MSH alone) was found to be 70.5%. The Water solubility in series [1] (setting [13]) amounted to 0.036 mg/mL. Besides, in [1] (distilled water, sonicated 1 h at room temperature, read-out: Water solubility (molar)), the solubility at 1 h is recorded as 157.7 µM.

Broadly, the IC50 is the concentration that gives 50% inhibition. Consider `OC[C@H]1O[C@@H](Oc2ccc(/C=C/c3cc(O)cc(O)c3)cc2)[C@H](O)[C@@H](O)[C@@H]1O` [resveratrol-4′-O-β-glucoside], for which the IC50 in series [11] is 1000 µM.

With `O=C1O[C@H]([C@@H](O)CO)C(O)=C1O` [vitamin C], in series [4], the “Time to scavenge the DPPH radical” value is ≤ 30 min.

`OC[C@H]1O[C@H](Oc2ccc(O)cc2)[C@H](O)[C@@H](O)[C@@H]1O` [α-arbutin]: the “Inhibitory activity, times as strong as that of β-arbutin” value in series [12] is recorded as 10 times.

As for `OC[C@H]1O[C@@H](Oc2cc(O)cc(/C=C/c3ccc(O)cc3)c2)[C@H](O)[C@@H](O)[C@@H]1O` [β-piceid], the EC50 in series [4] (at 30 min) amounted to 441 µM; in series [4] (at 5 h), 699 µM; in [6] (at 30 min) it was 215 µM; in [6] (at 5 h), 53.7 µM. In addition, the half-life at 10 mM in series [8] (setting [15]), in [8] (Buffer pH 9.0 (Tris-HCl)), in series [8] (setting [16]), in [8] (setting [17]) and in [8] (setting [18]) was > 72 h in each case. For the same compound, in series [9], the “Concentration affecting proliferation of B16F10 cells” value is reported as “above 100 μM”. For the same compound, the “Suppression of melanin synthesis” value in series [2] (100 μM) was determined as 36.5%; in series [2] (300 μM), 46.3%. Further, the “Suppression of tyrosinase activity” value in series [3] (setting [14]) came out at 19.2%. In series [3] (α-MSH-stimulated B16F10), this compound had an inhibition at 300 µM of 29.7%. In addition, the solubility at 1 h was 0.137 mg/mL in [1] (thermodynamic from solid, distilled water, sonicated 1 h at room temperature, read-out: Water solubility) and 351 µM in [1] (thermodynamic from solid, distilled water, sonicated 1 h at room temperature, read-out: Water solubility (molar)). Also, the IC50 in [11] was 198 µM.
